Measured values taken from ChEMBL document CHEMBL1140394, “Inhibition of Src kinase activity by 7-[(2,4-dichloro-5-methoxyphenyl)amino]-2-heteroaryl-thieno[3,2-b]pyridine-6-carbonitriles” (Bioorg Med Chem Lett, 2005).
pIC50: −log10 of the molar value.

Key:
[1] = molecular target: T1, Proto-oncogene tyrosine-protein kinase Src (Homo sapiens, UniProt P12931); experiment: Inhibitory activity against non-receptor tyrosine kinase Src in enzyme assay
[2] = molecular target: Serine/threonine-protein kinase AKT (Homo sapiens, UniProt P31751+Q9Y243+P31749); experiment: Inhibitory activity against AKT; type: functional
[3] = molecular target: Inhibitor of NF-kappa-B kinase (IKK) (Homo sapiens, UniProt O14920+O15111+Q9Y6K9); experiment: Inhibitory activity against IKK; type: functional
Inhibitor of NF-kappa-B kinase (IKK), sequence (O14920 whole entry): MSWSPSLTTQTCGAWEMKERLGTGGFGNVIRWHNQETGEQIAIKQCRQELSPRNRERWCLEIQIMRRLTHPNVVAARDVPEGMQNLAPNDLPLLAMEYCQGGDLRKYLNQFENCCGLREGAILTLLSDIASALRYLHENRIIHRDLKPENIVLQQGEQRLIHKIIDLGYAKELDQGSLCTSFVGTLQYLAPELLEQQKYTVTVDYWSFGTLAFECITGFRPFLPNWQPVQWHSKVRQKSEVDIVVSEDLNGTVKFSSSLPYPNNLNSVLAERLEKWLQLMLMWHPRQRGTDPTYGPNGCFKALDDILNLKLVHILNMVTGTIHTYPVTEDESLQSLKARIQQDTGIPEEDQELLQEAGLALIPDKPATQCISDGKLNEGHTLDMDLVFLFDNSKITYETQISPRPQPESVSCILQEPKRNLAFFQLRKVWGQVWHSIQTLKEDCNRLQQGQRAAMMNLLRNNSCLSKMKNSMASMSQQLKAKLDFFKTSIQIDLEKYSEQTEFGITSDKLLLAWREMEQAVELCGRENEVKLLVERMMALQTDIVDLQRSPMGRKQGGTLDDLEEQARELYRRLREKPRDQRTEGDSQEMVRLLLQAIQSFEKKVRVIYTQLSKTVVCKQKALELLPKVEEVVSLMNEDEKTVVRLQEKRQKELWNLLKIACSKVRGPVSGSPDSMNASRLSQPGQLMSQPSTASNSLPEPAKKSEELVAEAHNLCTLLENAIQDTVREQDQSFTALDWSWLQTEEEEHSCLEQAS
Inhibitor of NF-kappa-B kinase (IKK), sequence (O15111 whole entry): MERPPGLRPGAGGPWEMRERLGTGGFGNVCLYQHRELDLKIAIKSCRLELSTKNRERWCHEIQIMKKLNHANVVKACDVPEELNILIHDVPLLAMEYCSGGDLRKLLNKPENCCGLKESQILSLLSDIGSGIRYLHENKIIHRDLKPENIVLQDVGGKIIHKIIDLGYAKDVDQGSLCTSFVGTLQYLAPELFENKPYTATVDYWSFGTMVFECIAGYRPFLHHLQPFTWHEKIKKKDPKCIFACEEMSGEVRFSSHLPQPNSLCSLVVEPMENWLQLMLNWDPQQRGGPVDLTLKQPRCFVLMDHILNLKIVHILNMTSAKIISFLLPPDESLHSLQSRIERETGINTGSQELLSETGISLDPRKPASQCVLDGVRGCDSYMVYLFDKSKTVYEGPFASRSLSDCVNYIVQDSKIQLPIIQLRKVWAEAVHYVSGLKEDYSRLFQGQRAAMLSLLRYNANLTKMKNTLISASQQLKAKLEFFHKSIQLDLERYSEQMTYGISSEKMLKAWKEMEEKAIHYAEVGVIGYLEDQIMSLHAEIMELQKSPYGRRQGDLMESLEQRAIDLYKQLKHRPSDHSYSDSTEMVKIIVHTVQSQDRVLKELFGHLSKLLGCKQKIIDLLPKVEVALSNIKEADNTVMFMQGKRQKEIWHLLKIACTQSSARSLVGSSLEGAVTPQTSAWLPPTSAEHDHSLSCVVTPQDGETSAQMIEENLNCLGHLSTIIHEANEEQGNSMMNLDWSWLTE
Inhibitor of NF-kappa-B kinase (IKK), sequence (Q9Y6K9 whole entry): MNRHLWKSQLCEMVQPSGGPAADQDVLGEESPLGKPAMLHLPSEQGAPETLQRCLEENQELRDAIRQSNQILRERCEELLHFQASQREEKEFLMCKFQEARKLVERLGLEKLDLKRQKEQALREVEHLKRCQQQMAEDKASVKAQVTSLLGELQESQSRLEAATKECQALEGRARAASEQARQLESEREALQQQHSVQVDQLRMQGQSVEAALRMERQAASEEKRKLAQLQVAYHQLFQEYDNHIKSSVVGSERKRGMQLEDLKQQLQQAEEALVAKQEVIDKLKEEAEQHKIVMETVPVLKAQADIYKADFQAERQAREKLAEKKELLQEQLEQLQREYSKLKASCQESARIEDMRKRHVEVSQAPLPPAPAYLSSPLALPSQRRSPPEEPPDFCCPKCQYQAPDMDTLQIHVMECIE

[4] = molecular target: Cyclin-dependent kinase 4 (Homo sapiens, UniProt P11802); experiment: Inhibitory activity against CDK4; type: functional
Cyclin-dependent kinase 4, sequence (P11802 whole entry): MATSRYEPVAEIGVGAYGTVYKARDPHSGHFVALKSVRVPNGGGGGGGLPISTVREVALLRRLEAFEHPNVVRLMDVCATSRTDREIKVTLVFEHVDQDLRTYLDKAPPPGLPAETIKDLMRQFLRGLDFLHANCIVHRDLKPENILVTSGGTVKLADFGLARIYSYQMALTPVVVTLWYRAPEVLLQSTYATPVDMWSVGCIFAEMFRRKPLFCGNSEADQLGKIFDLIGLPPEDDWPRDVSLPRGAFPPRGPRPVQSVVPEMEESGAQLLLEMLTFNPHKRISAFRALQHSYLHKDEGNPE

[5] = molecular target: T2, 3-phosphoinositide-dependent protein kinase 1 (Homo sapiens, UniProt O15530); experiment: Inhibitory activity against PDK1; type: functional
T2 sequence (O15530 whole entry): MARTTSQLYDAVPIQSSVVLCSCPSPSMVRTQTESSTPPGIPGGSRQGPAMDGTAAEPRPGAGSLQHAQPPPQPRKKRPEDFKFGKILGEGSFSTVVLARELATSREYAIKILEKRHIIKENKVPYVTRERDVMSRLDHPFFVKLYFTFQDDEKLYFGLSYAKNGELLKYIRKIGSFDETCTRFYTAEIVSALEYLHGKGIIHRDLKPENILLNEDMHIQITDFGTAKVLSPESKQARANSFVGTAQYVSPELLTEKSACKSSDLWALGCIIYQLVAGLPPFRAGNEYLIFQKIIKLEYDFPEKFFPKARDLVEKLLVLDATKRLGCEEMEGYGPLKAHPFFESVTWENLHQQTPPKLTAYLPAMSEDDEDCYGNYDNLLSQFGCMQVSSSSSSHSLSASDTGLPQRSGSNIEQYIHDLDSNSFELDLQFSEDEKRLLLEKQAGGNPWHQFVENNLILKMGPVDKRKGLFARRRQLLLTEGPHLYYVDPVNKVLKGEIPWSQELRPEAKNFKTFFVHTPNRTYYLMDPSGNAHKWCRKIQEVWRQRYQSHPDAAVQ

[6] = molecular target: Serine/threonine-protein kinase RAF and Dual specificity mitogen-activated protein kinase kinase 1 (Raf/MEK) (Homo sapiens, UniProt P04049+Q02750); experiment: Inhibitory activity against Raf/MEK; type: functional
[7] = molecular target: T1, Proto-oncogene tyrosine-protein kinase Src; experiment: Inhibitory activity against non-receptor tyrosine kinase Src in cell assay; type: functional

T1 sequence (P12931 2-536 limits assumed): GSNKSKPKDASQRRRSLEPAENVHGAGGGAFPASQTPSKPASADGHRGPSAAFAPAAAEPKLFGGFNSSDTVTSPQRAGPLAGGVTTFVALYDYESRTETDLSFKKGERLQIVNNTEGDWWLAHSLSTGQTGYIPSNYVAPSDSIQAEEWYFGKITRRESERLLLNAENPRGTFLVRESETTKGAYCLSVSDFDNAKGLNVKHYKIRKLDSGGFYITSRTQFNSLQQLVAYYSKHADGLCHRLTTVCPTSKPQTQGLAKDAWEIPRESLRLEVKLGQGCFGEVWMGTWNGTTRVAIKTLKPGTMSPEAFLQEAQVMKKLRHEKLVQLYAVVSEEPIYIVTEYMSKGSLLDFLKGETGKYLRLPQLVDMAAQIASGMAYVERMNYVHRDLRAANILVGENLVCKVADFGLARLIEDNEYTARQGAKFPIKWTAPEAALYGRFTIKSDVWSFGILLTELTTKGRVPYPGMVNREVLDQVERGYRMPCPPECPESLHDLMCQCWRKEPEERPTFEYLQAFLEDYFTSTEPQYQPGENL

COc1cc(Nc2c(C#N)cnc3cc(-c4ccc(CN5CCN(C)CC5)cn4)sc23)c(Cl)cc1Cl
pIC50 [1]: 7.89 | IC50 [2]: > 10000 nM | pIC50 [3]: < 5.00 | pIC50 [4]: < 5.00 | pIC50 [5]: < 5.00 | IC50 [6]: 1600 nM | pIC50 [7]: 6.38
